Laboratory results published in patent publication US8829004B2, “Method for inducing tumor apoptosis by increasing nitric oxide levels” (Universitätsklinikum Freiburg, priority 2006, dated 2014).

Columns and labels:
[1] = tested on: Gumbus; test: Inhibitor effect on inducer-mediated apoptosis, Gumbus cells (Example 6); type: cell-based
Method: (§1) The effect of a singlet oxygen scavenger, a NO synthase inhibitor and a HOCl scavenger on either the destruction of the catalase or the HOCl pathway was determined by the following experiment. 12500 SISO cells in 100 μl media in 96 tissue wells were treated with taxol (20 μg/ml) in the presence of TGF-β (20 ng/ml). In addition, the singlet oxygen scavenger, the NO synthase inhibitor or the HOCl scavenger was added at different points of time in the experiments.
(§2) Further experiments have been carried out using different types of cells and different apoptosis inhibitors. The experimental setup was analogue to the examples 5a-5c and the late addition of the inhibitor (histidine, L-NAME, 3-Br-7-Nitroindazole or taurine) was performed 1 hour after beginning of the experiment. The concentrations of taxol, histidine, L-NAME and taurine were the same as in the experiments 5a-5c. 3-Br-7-Nitroindazole was added at a concentration of 10 μm. The apoptosis inducing compounds were added at increasing concentrations (0-5 mM arginine, 0-20 μg/ml taxol, 0-20 μg/ml artemisine, 0-20 μg/ml xanthohumol, 0-20 μg/ml itraconazole, 0-10 μg/ml miconazole, 0-20 μg/ml antibody against Apo/FAS receptor). In each of the experiments, the effect of the inhibitors on the singlet oxygen mediated catalase destruction and/or the subsequent ROS signaling could be observed. […] Addition of histidine at the beginning of the experiment caused inhibition in all experiments and for all cell lines shown. […] The experiments using neuroblastoma cells only display apoptosis mediated by the NO pathway as these cells only release small amounts of peroxidase. Therefore, addition of the nNOS-specific inhibitor 3-Br-7NI caused inhibition of apoptosis, irrespective of the time of addition. […] Addition of taurine in the presence of higher concentrations of inducers inhibited apoptosis irrespective of the time of addition (zero versus one hour), as HOCl is only involved in intercellular signaling, but not in catalase destruction.

[2] = tested on: SISO cells (human cervix carcinoma); test: Apoptosis induction by taxol in SISO cells, 48 well (FIGS. 6-8, Example 4); type: cell-based; details: for synergistic effect with taxol on apoptosis: 10 mM arginine, 200 μM Nor-NOHA or both, suboptimal taxol, 20 ng/ml TGF
Method: FIG. 6 discloses experimental data obtained with 25000 SISO cells (human cervix carcinoma) cultured in 48 well tissue culture clusters in the presence of the indicated concentrations of the established chemotherapeutic compound taxol. The assays contained 2 mM Histidine or not.
FIG. 7 discloses experimental data obtained with 25000 SISO cells (human cervix carcinoma) cultured in 48 well tissue culture clusters either in the absence of any inducer (“no addition”) or in the presence of 10 μg/ml taxol (“TAX”) without further additions or with the addition of 100 μM of the NADPH oxidase inhibitor AEBSF, 100 U/ml of the superoxide anion scavenger SOD (Manganese-containing SOD from E. coli), 100 U/ml catalase, 150 μM of the peroxidase inhibitor ABH (aminobenzoylhydrazide), 50 mM of the HOCl scavenger taurine, 1 mM of the hydroxyl radical scavenger mannitol, 2.4 mM of the NO synthase inhibitor L-NAME, and 25 μM of the inhibitors for caspase 3, −9 and 8.
FIG. 8 discloses experimental data obtained with 25 000 SISO cells in 48 well tissue culture clusters in the presence of 20 ng/ml TGF and the indicated concentrations of taxol. Where indicated, taxol containing assays received 10 mM arginine (10 ARG), 200 μM Nor-NOHA or a combination of both.
Human SISO cells are used in a 48-well plate (Costar) in 200 μl media with a cell concentration of 25,000. The media comprises 20 ng/ml TGF-beta and furthermore Taxol subjected for testing in a concentration ranging from 1.25-20 ng/ml. For comparison, control experiments are performed without Taxol which is tested for apoptosis induction.
Step 2 is carried out with the same conditions as specified for step 1, whereas all cells are contacted with taxol. In addition, histidine (2 mM) is added to the cells, whereas also experiments without histidine are performed as control experiments.
In a further experiment using the conditions of step 1, human tumor cells (SISO) are contacted with taxol (10 μg/ml) and 100 μM of the NADPH oxidase inhibitor AEBSF, 100 U/ml of the superoxide anion scavenger SOD (Manganese-containing SOD from E. coli), 100 U/ml catalase, 150 μM of the peroxidase inhibitor ABH (aminobenzoylhydrazide), 50 mM of the HOCl scavenger taurine, 1 mM of the hydroxyl radical scavenger mannitol or 2.4 mM of the NO synthase inhibitor L-NAME.

[3] = tested on: SKNMC; test: Inhibitor effect on inducer-mediated apoptosis, SKNMC cells (Example 6); type: cell-based, human
Method: as §1
(§3) Further experiments have been carried out using different types of cells and different apoptosis inhibitors. The experimental setup was analogue to the examples 5a-5c and the late addition of the inhibitor (histidine, L-NAME, 3-Br-7-Nitroindazole or taurine) was performed 1 hour after beginning of the experiment. The concentrations of taxol, histidine, L-NAME and taurine were the same as in the experiments 5a-5c. 3-Br-7-Nitroindazole was added at a concentration of 10 μm. The apoptosis inducing compounds were added at increasing concentrations (0-5 mM arginine, 0-20 μg/ml taxol, 0-20 μg/ml artemisine, 0-20 μg/ml xanthohumol, 0-20 μg/ml itraconazole, 0-10 μg/ml miconazole, 0-20 μg/ml antibody against Apo/FAS receptor). In each of the experiments, the effect of the inhibitors on the singlet oxygen mediated catalase destruction and/or the subsequent ROS signaling could be observed. […]

[4] = tested on: MKN-45; test: Inhibitor effect on inducer-mediated apoptosis, MKN-45 cells (Example 6); type: cell-based
Method: as §1, §2

[5] = tested on: L929 cells; test: Apoptosis induction by azoles in L929 cells with TGF-beta; type: cell-based, murine; details: 2 mM histidine; 3-AT at 25 mM
Method: FIG. 3 discloses experimental data obtained with 25000 L929 cells in 48 well tissue culture clusters in the presence of 20 ng/ml TGF-beta. Itraconazole was added at the indicated concentrations, in the presence or absence of 2 mM histidine (singlet oxygen scavenger). The percentage of apoptotic cells was determined after 37 hrs.
The dashed lines indicate the percentage of apoptotic cells obtained when the tumor cell catalase was blocked by 25 mM […] (3-AT).
FIG. 4 discloses experimental data obtained with 25000 L929 cells in 48 well tissue culture clusters in the presence of 20 ng/ml TGF-beta. “No addition” represents the control without addition of compound. […] The percentage of apoptotic cells was determined after 63 hrs.
The first step comprises contacting tumor cells in media comprising TGF-beta with the test compounds to be analyzed for their properties of apoptosis induction. After a specific incubation time, the extent of apoptosis induction is determined, e.g. after two days. Methods for determining the apoptosis in cells in a quantitative manner are well known in the art and are for example described by Jürgensmeier et al. (Cancer Research 1994; 54:393-398). […] These features of apoptotic cells can be determined through phase contrast microscopy or after chromatin staining with fluorescent dyes, followed by fluorescence microscopy. […]

[6] = tested on: SKNMC cells (human neuroblastoma); test: Apoptosis induction in SKNMC cells with ROS pathway inhibitors (FIG. 5); type: cell-based
Method: FIG. 5 discloses experimental data obtained with 25 000 SKNMC cells (human neuroblastoma) in 48 well tissue culture clusters (without addition of TGF-beta). […] Control assays contained the respective compound in the absence of any inhibitors. Parallel assays contained either 200 μM of the NADPH (nicotinamide adenine dinucleotide phosphate) oxidase inhibitor AEBSF, 10 μM of the nNOS-specific NO synthetase inhibitor 3-Br-7-Ni (3-bromo-7-nitroindazole), 2 mM of the singlet oxygen scavenger histidine or 50 mM of the HOCl scavenger taurine. The percentage of apoptotic cells was determined at the indicated time points.
For all inducers, apoptosis induction was dependent on superoxide anion generation and NO synthesis, as it was blocked by AEBSF and 3-Br-7-Ni respectively. In contrast to the NO/peroxynitrite pathway, the HOCl pathway played no role for apoptosis induction in this particular line. Apoptosis induction by all azoles tested depended on singlet oxygen action, as it was blocked by histidine.

[7] = tested on: normal diploid fibroblasts; test: Toxicity test on normal diploid fibroblasts (step 3); type: cell-based; details: conditions of step 1, two days; data not shown
Method: The method for identifying suitable compounds can additionally comprise a third step. The third step comprises contacting the identified compounds from step 2 with normal diploid fibroblasts in order to determine whether these compounds induce apoptosis or other toxic reactions and are therefore not suitable for a medical use.
The experimental conditions are the same as for step 1, whereas the cells used for step 3 are normal diploid fibroblasts. Control experiments are carried out without the test compound, and the cells are incubated for two days.

[8] = tested on: SISO cells; test: Timed inhibitor addition on inducer-mediated apoptosis in SISO cells, 96 well (Examples 5, 6); type: cell-based, human
Method: FIG. 9 discloses experimental data obtained with 12500 SISO cells in 96 well tissue culture clusters in the presence of 20 ng/ml TGF and the indicated concentrations of taxol. Furthermore, histidine was added at different time points in the experiment.
FIG. 11 refers to a similar experiment as described with respect to FIG. 8 or 9, whereas histidine/L-NAME was substituted by taurine (50 mM, scavenger of HOCl).
as §1
The concentrations of taxol, histidine, L-NAME and taurine were the same as in the experiments 5a-5c. 3-Br-7-Nitroindazole was added at a concentration of 10 μm. The apoptosis inducing compounds were added at increasing concentrations (0-5 mM arginine, 0-20 μg/ml taxol, 0-20 μg/ml artemisine, 0-20 μg/ml xanthohumol, 0-20 μg/ml itraconazole, 0-10 μg/ml miconazole, 0-20 μg/ml antibody against Apo/FAS receptor).

[9] = tested on: SHEP; test: Inhibitor effect on inducer-mediated apoptosis, SHEP cells (Example 6); type: cell-based, human
Method: as §1, §3

[10] = tested on: SISO cells (human cervix carcinoma); test: Apoptosis induction by taxol in SISO cells, 48 well (FIGS. 6-8, Example 4); type: cell-based
[11] = SISO, inducer at increasing concentrations

COc1cc(O)c(CC=C(C)C)c(O)c1C(=O)/C=C/c1ccc(O)cc1 [Xanthohumol]
apoptosis inhibitory effect of Histidine [1]: +
apoptosis inhibitory effect of L-NAME [1]: +
apoptosis inhibitory effect of Taurine [1]: +

Clc1ccc(COC(Cn2ccnc2)c2ccc(Cl)cc2Cl)c(Cl)c1 (centres unmarked) [Miconazole]
apoptosis inhibitory effect of Histidine [1]: +
apoptosis inhibitory effect of L-NAME [1]: +
apoptosis inhibitory effect of Taurine [1]: +

N=C(N)NCCC[C@H](N)C(=O)O [Arginine]
synergistic effect with taxol on apoptosis [2]: synergistic effect
apoptosis inhibitory effect of Histidine [3]: +
apoptosis inhibitory effect of 3-Br-7-NI ([3]; 3-Br-7-Nitroindazole 10 μm): +
apoptosis inhibitory effect of Histidine [1]: +
apoptosis inhibitory effect of L-NAME [1]: +
apoptosis inhibitory effect of Taurine [1]: +

C[C@@H]1CC[C@H]2[C@@H](C)C(=O)O[C@@H]3O[C@@]4(C)CC[C@@H]1[C@]32OO4 [Artemisinine]
apoptosis inhibitory effect of Histidine [4]: +
apoptosis inhibitory effect of L-NAME [4]: +
apoptosis inhibitory effect of Taurine [4]: +

CCC(C)n1ncn(-c2ccc(N3CCN(c4ccc(OCC5COC(Cn6cncn6)(c6ccc(Cl)cc6Cl)O5)cc4)CC3)cc2)c1=O (centres unmarked) [Itraconazole]
apoptosis inhibitory effect of Histidine [1]: +
apoptosis inhibitory effect of L-NAME [1]: +
apoptosis inhibitory effect of Taurine [1]: +

N=C(NO)NCC[C@H](N)C(=O)O [Nor-NOHA, N^omega-hydroxy-nor-L-arginine]
synergistic effect with taxol on apoptosis [2]: synergistic effect

Nc1nc[nH]n1 [3-AT, 3-aminotriazole]
effect of histidine on induced apoptosis [5]: not blocked by histidine
effect of histidine on induced apoptosis (singlet oxygen dependence) ([6]; 2 mM histidine): singlet oxygen is not required
apoptosis induction (percentage of apoptotic cells) ([6]; 12.5 or 25 μg/ml azole, 75 mM 3-AT, without TGF-beta): induced apoptosis in the tumor cells to a significant extent

CC(=O)O[C@H]1C(=O)[C@@]2(C)[C@H]([C@H](OC(=O)c3ccccc3)[C@]3(O)C[C@H](OC(=O)[C@H](O)[C@@H](NC(=O)c4ccccc4)c4ccccc4)C(C)=C1C3(C)C)[C@]1(OC(C)=O)CO[C@@H]1C[C@@H]2O [Taxol]
effect of histidine on taxol-induced apoptosis ([2]; 2 mM histidine): inhibited by histidine at all concentrations
apoptosis induction ([2]; Taxol 1.25-20 ng/ml, 20 ng/ml TGF-beta): apoptosis already occurs after 12.5 hours at all concentrations
caspase dependence of apoptosis induction ([2]; taxol 10 μg/ml, 25 μM inhibitors for caspase 3, -9 and 8): mediated by caspases 9 and 3 (mitochondrial pathway) and is independent of the death receptor specific caspase 8
effect of inhibitors of superoxide anion generation (AEBSF, SOD) on taxol-mediated apoptosis ([2]; taxol 10 μg/ml, 100 μM AEBSF, 100 U/ml SOD): inhibited
effect of inhibitor of the NO pathway (L-NAME) on taxol-mediated apoptosis ([2]; taxol 10 μg/ml, 2.4 mM L-NAME): not by the inhibitor of the NO pathway
effect of inhibitors of the HOCl pathway (catalase, ABH, taurine, mannitol) on taxol-mediated apoptosis ([2]; taxol 10 μg/ml, 100 U/ml catalase, 150 μM ABH, 50 mM taurine, 1 mM mannitol): inhibited
apoptosis induction in diploid fibroblasts [7]: did not induce significant apoptosis
effect of histidine added at the beginning on taxol-induced apoptosis ([8]; 2 mM histidine at start): inhibits the tumor apoptosis to a great extend
effect of late addition of L-NAME on taxol-induced apoptosis ([8]; 2.4 mM L-NAME 5 hours after beginning): only shows some inhibition at low taxol concentrations
effect of early addition of L-NAME on taxol-induced apoptosis ([8]; 2.4 mM L-NAME at start): inhibits tumor apoptosis
effect of taurine on taxol-induced apoptosis ([8]; 50 mM taurine at start or after 5 hours): only inhibits tumor apoptosis at high taxol concentrations
apoptosis inhibitory effect of Histidine [8, 11]: +
apoptosis inhibitory effect of L-NAME [8, 11]: +
apoptosis inhibitory effect of Taurine [8, 11]: +
effect of late addition of histidine on taxol-induced apoptosis ([8]; histidine 5 hours after beginning): only shows a small effect of apoptosis inhibition
apoptosis inhibitory effect of Histidine [9]: +
apoptosis inhibitory effect of 3-Br-7-NI ([9]; 3-Br-7-Nitroindazole 10 μm): +
apoptosis inhibitory effect of Histidine [1]: +
apoptosis inhibitory effect of L-NAME [1]: +
apoptosis inhibitory effect of Taurine [1]: +
signaling pathway used at low taxol concentration ([10]; 2 μg/ml taxol, data not shown): the NO pathway became more prominent
apoptosis induction in SISO cells with siRNA knockdown of superoxide anion generation ([10]; siRNA-based genetic knockdown): did not lead to taxol-mediated apoptosis induction
